# Measured values as given in ChEMBL document CHEMBL1154070, “QSAR study of Akt/protein kinase B (PKB) inhibitors using support vector machine” (Eur J Med Chem, 2009).
# Target: RAC-alpha serine/threonine-protein kinase (Homo sapiens, UniProt P31749)
# Experiment: Inhibition of Akt
# Sequence of RAC-alpha serine/threonine-protein kinase (P31749 whole entry): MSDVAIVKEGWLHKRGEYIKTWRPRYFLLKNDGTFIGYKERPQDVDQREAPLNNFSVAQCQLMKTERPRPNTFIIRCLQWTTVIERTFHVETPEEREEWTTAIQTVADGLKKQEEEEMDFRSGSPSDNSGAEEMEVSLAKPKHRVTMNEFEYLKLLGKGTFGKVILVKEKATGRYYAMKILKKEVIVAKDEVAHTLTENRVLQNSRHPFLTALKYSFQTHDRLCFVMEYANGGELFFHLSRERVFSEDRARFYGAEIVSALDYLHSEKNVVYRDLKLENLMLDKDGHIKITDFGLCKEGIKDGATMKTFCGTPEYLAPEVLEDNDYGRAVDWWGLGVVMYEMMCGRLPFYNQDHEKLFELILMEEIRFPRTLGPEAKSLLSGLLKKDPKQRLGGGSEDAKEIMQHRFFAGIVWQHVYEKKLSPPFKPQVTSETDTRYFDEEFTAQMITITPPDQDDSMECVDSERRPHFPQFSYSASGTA
row,IC50 [nM],Compound
1,273,N[C@H](COc1cncc(/C=C/c2ccncc2)c1)C(c1ccccc1)c1ccccc1
2,16,N[C@H](COc1cncc(-c2ccc3c(c2)CC(=O)N3)c1)Cc1ccccc1
3,14,Cc1n[nH]c2cnc(-c3cncc(OC[C@@H](N)Cc4ccccc4)c3)cc12
4,0.6,N[C@H](COc1cncc(-c2ccc3c(c2)/C(=C/c2ccc[nH]2)C(=O)N3)c1)Cc1ccccc1
5,12300,O=C1C(Sc2cccc(Cl)c2Cl)=C(Cl)C(=O)c2[nH]ncc21
6,39,Cc1cc(C)c(C[C@H](N)COc2cncc(-c3cc4c(C)n[nH]c4cn3)c2)c(C)c1
7,18,Cc1n[nH]c2cnc(-c3cncc(OC[C@@H](N)Cc4ccc(C(F)(F)F)cc4)c3)cc12
8,1.2,N[C@H](COc1cncc(-c2ccc3[nH]nc(-c4ccc[nH]4)c3c2)c1)Cc1c[nH]c2ccccc12
9,1120,N[C@H](COc1cncc(-c2ccc(NC(=O)Nc3ccccc3)cn2)c1)Cc1c[nH]c2ccccc12
10,0.9,N[C@H](COc1cncc(-c2ccc3c(c2)C(c2cccs2)C(=O)N3)c1)Cc1c[nH]c2ccccc12 (stereo partly specified)
11,153,N[C@H](COc1cncc(-c2ccc3c(c2)C(c2c[nH]c4ccccc24)C(=O)N3)c1)Cc1c[nH]c2ccccc12 (stereo partly specified)
12,3.9,Cc1ccc(F)cc1C[C@H](N)COc1cncc(-c2cc3c(C)n[nH]c3cn2)c1
13,0.17,N[C@H](COc1cncc(-c2ccc3c(c2)C(c2ccco2)C(=O)N3)c1)Cc1c[nH]c2ccccc12 (stereo partly specified)
14,10.3,N[C@H](COc1cncc(-c2ccc3c(c2)C(c2ccccn2)C(=O)N3)c1)Cc1c[nH]c2ccccc12 (stereo partly specified)
15,65.5,Cc1n[nH]c2cnc(-c3cncc(OC[C@@H](N)Cc4c(F)cccc4F)c3)cc12
16,2.5,Cc1cc(C[C@H](N)COc2cncc(-c3cc4c(C)n[nH]c4cn3)c2)ccc1F
17,8.4,Cc1n[nH]c2cnc(-c3cncc(OC[C@@H](N)Cc4cccc(F)c4)c3)cc12
18,5,Cc1n[nH]c2cnc(-c3cncc(OC[C@@H](N)Cc4ccc(Br)cc4)c3)cc12
19,3.3,N[C@H](COc1cncc(-c2ccc3c(c2)C(C2CC2)C(=O)N3)c1)Cc1c[nH]c2ccccc12 (stereo partly specified)
20,760,Cn1cc(C(CN)Oc2cncc(/C=C/c3ccncc3)c2)c2ccccc21 (stereo unspecified)
21,3.9,N[C@H](COc1cncc(-c2ccc3[nH]nc(-c4ccccc4)c3c2)c1)Cc1c[nH]c2ccccc12

row,IC50 [nM],Compound
1,1360,Cc1n[nH]c2cnc(-c3cncc(OC[C@@H](N)Cc4cccc(OCC5CCCCC5)c4)c3)cc12
2,47,Cc1n[nH]c2cnc(-c3cncc(OC[C@@H](N)Cc4cccc(OCCN)c4)c3)cc12
3,12,Cc1n[nH]c2cnc(-c3cncc(OC[C@@H](N)Cc4ccc(F)c(F)c4F)c3)cc12
4,9.8,N[C@H](COc1cncc(-c2ccc3[nH]nc(-c4nccs4)c3c2)c1)Cc1c[nH]c2ccccc12
5,80,CC(C)=C1C(=O)Nc2ccc(-c3cncc(OC[C@@H](N)Cc4c[nH]c5ccccc45)c3)cc21
6,6,Cc1cc(F)ccc1C[C@H](N)COc1cncc(-c2cc3c(C)n[nH]c3cn2)c1
7,751,Cc1n[nH]c2cnc(-c3cncc(OC[C@@H](N)Cc4cccc(OCCN5CCOCC5)c4)c3)cc12
8,0.7,Cc1ccc(C2C(=O)Nc3ccc(-c4cncc(OC[C@@H](N)Cc5c[nH]c6ccccc56)c4)cc32)o1 (stereo partly specified)
9,1.4,N[C@H](COc1cncc(-c2ccc3c(c2)C(Cc2ccco2)C(=O)N3)c1)Cc1ccccc1 (stereo partly specified)
10,14,Cc1n[nH]c2cnc(-c3cncc(OC[C@@H](N)Cc4cccc5c4OC(F)(F)O5)c3)cc12
11,1.5,N[C@H](COc1cncc(-c2ccc3c(c2)C(c2ccc[nH]2)C(=O)N3)c1)Cc1c[nH]c2ccccc12 (stereo partly specified)
12,6.8,Cc1n[nH]c2cnc(-c3cncc(OC[C@@H](N)Cc4cccc(OCC5CCNCC5)c4)c3)cc12
13,10.4,N[C@H](COc1cncc(-c2ccc3c(c2)C(c2cccnc2)C(=O)N3)c1)Cc1c[nH]c2ccccc12 (stereo partly specified)
14,1.3,N[C@H](COc1cncc(-c2ccc3[nH]nc(-c4cccs4)c3c2)c1)Cc1c[nH]c2ccccc12
15,5.9,N[C@H](COc1cncc(-c2ccc3c(c2)C(c2ccccc2)C(=O)N3)c1)Cc1c[nH]c2ccccc12 (stereo partly specified)
16,40.3,CCc1c(C)[nH]c(C2C(=O)Nc3ccc(-c4cncc(OC[C@@H](N)Cc5c[nH]c6ccccc56)c4)cc32)c1C (stereo partly specified)
17,10,Cc1cc(C2C(=O)Nc3ccc(-c4cncc(OC[C@@H](N)Cc5c[nH]c6ccccc56)c4)cc32)oc1C (stereo partly specified)
18,18,N[C@H](COc1cncc(-c2ccc3[nH]nc(N4CCOCC4)c3c2)c1)Cc1c[nH]c2ccccc12
19,7.2,N[C@H](COc1cncc(-c2ccc3c(c2)C(c2ncc[nH]2)C(=O)N3)c1)Cc1c[nH]c2ccccc12 (stereo partly specified)
20,8.2,Cn1cccc1C1C(=O)Nc2ccc(-c3cncc(OC[C@@H](N)Cc4c[nH]c5ccccc45)c3)cc21 (stereo partly specified)
21,16000,O=C1C(Nc2cc(F)ccc2F)=C(Cl)C(=O)c2[nH]ncc21

row,Compound,IC50 [nM]
1,N[C@H](CNc1cnc(Cl)c(/C=C/c2ccncc2)c1)Cc1c[nH]c2ccccc12,79
2,N[C@H](COc1cncc(-c2ccc3c(=O)[nH]ccc3c2)c1)Cc1c[nH]c2ccccc12,1020
3,N[C@H](COc1cncc(-c2ccncc2)c1)Cc1c[nH]c2ccccc12,245
4,N[C@H](COc1cncc(C(=O)Nc2ccncc2)c1)Cc1c[nH]c2ccccc12,1660
5,Nc1nccc2cc(-c3cncc(OC[C@@H](N)Cc4c[nH]c5ccccc45)c3)ccc12,188
6,N[C@H](COc1cncc(-c2cc3ccncc3s2)c1)Cc1c[nH]c2ccccc12,179
7,N[C@H](COc1cncc(-c2ccc3ccccc3c2)c1)Cc1c[nH]c2ccccc12,1120
8,CN(C)c1n[nH]c2ccc(-c3cncc(OC[C@@H](N)Cc4c[nH]c5ccccc45)c3)cc12,18
9,N[C@H](COc1cncc(-c2ccc3[nH]nc(C4CC4)c3c2)c1)Cc1c[nH]c2ccccc12,2.6
10,CCc1ncc(OC[C@@H](N)Cc2c[nH]c3ccccc23)cc1-c1ccc2cnccc2c1,0.8
11,N[C@H](COc1cncc(-c2ccc3ncccc3c2)c1)Cc1c[nH]c2ccccc12,312
12,N[C@H](COc1cncc(-c2ccc3nnccc3c2)c1)Cc1c[nH]c2ccccc12,215
13,CCc1n[nH]c2ccc(-c3cncc(OC[C@@H](N)Cc4c[nH]c5ccccc45)c3)cc12,1.15
14,CC1C(=O)Nc2ccc(-c3cncc(OC[C@@H](N)Cc4c[nH]c5ccccc45)c3)cc21 (stereo partly specified),4
15,N[C@H](COc1cncc(-c2ccc3c(c2)C(=O)C(=O)N3)c1)Cc1c[nH]c2ccccc12,5.4
16,O=c1[nH]c2ccccc2n1C1CCN(Cc2ccc(-c3nc4cc(-n5cnnn5)ccc4nc3-c3ccccc3)cc2)CC1,20
17,O=c1[nH]c2ccccc2n1C1CCN(Cc2ccc(-c3nc4ccc(-n5cnnn5)cc4nc3-c3ccccc3)cc2)CC1,63
18,N[C@H](COc1cncc(-c2ccc3[nH]nc(C=O)c3c2)c1)Cc1c[nH]c2ccccc12,1850
19,N[C@H](COc1cncc(-c2cnc3c(c2)CC(=O)N3)c1)Cc1c[nH]c2ccccc12,7.4
20,N[C@H](COc1cncc(CCc2ccncc2)c1)Cc1c[nH]c2ccccc12,210
21,CC(C)c1nc(-c2ccccc2)c(-c2ccc(CN3CCC(n4c(=O)[nH]c5ccccc54)CC3)cc2)[nH]c1=O,21200
22,N[C@H](COc1cncc(NC(=O)c2ccncc2)c1)Cc1c[nH]c2ccccc12,2020
23,N[C@H](COc1cncc(-c2ccc(CO)cc2)c1)Cc1c[nH]c2ccccc12,4020
24,N[C@H](COc1cncc(-c2ccc3[nH]c(=O)sc3c2)c1)Cc1c[nH]c2ccccc12,99
25,C(=C\c1cncc(OCC2CCN2)c1)/c1ccncc1 (stereo unspecified),10900
26,CCC1C(=O)Nc2ccc(-c3cncc(OC[C@@H](N)Cc4c[nH]c5ccccc45)c3)cc21 (stereo partly specified),52.7
27,N[C@H](COc1cncc(-c2ccc3c(c2)C(F)(F)C(=O)N3)c1)Cc1c[nH]c2ccccc12,1.5
28,Nc1n[nH]c2ccc(-c3cncc(OC[C@@H](N)Cc4c[nH]c5ccccc45)c3)cc12,2.9
29,N[C@H](COc1cncc(-c2cccc3cnccc23)c1)Cc1c[nH]c2ccccc12,331
